“And” between values parts separate entries of the source, which are not always exact repeats. Identical values can stand only once. Like-named read-outs stand apart in the source and are kept apart here.
How the values were obtained:
mTORC1 = experiment: Immunoblotting of mTORC1 signaling, mature SREBP1 and FASN in primary hepatocytes; format: cell-based, mouse; details: glucagon-insulin-treated primary hepatocytes
Protocol: Fi g u re B . Immunoblotting analysis of phosphorated or total protein amounts of S6K , mature SREBP -1and FASN in primary hepatocyt es . The cells wer epretreated with APC (10 μ M) for 2 hours , exposed to glucagon (100 nM) for 4 hours, and t hen followed by12- hour insulin (100 nM) incubationbefore collection.
(1 picture or pasted object on this page, not shown here) […]
I have a few more points that have to be addressed in the revised work.
1. In Figure B, it appeared that APC-induced p-S6K level was rather inhibited by glu/ins treatment (lane 3 vs lane 4). Is it significant?
Response: We agree wit h Reviewer1’ s comments that the western blotting band of p-S6K level of lane 4 seems weaker than that of lane3 in Figure B. However, we performed the densitometry analysis of all the results from three independent […]
independent of its effect on reducing SREBP-1c expression and the subsequent repression of lipogenesis. The authors should simply run western blot for mTORC1 signaling by utilizing the existing samples.
Response: We are grat eful for Reviewer1’s com ments. […]
to glucagon (100 nM) for 4 hours, and then followed by 12- hour insulin (100 nM) incubation before collection. […] Data are represented as mean ± SEM. *, p < 0.05; **, p < 0.01; p values were determined by two- way ANOVA followed Bonferroni’s multiple comparisons test. […]

PPARα, RXRα or LXRα = experiment: PPRE-LUC reporter in HEK293T; format: cell-based; details: for relative PPRE-LUC: individual replicates, Supp. Fig.6 c; for relative PPRE-LUC, mean: N=3
Protocol: 1 c) Luciferase reporter activity of PPRE-LUC (PPAR response element driven luciferase reporter) in
2 HEK293T cell transfected with expression plasmids for Ppara, Rxra or Lxra with 8-h incubation of
3 APC (10 µM). One of three independent experiments presented here. Data are represented as
4 mean ± SEM. (n=3 per treatment). *, p < 0.05; **, p < 0.01; p values were determined by two-way

[1] = Tissue distribution assay; format: in vivo, mouse; details: for concentration at 8 h / concentration at 4 h / concentration at 2 h: male, C57/BL6, mouse, po, 20 mg/kg
Protocol: Male C57/BL6 mice (18–20 g, n = 3 in each group) were randomly sorted into treatment groups. Being fasted for 12-h, mice were treated with oral gavage of the compound APC (20 mg/kg, in DMSO/0.5% HMPC, 5/95, v/v). After 2, 4, and 8-h of administration, the animals were sacrificed, respectively, the indicated tissues, including plasma, liver, kidney, muscle, brain, spleen, pancreas, white and brown fat, were collected and preserved at −80 °C. The APC content in samples was analyzed with a liquid chromatography-mass spectrometry/mass spectrometry (LC–MS/MS) system and normalized by protein content.

SMILES: CC(C)=CCc1cc(C=CC(=O)O)cc(CC=C(C)C)c1O [APC, 3,5-diprenyl-4-hydroxycinnamic acid]
- mTORC1 activity (mTORC1): increased
- protein amounts of mature SREBP1 and fat acid synthase (mTORC1): decreased
- activity of PPRE-luc induced by PPARα, RXRα or LXRα (PPARα, RXRα or LXRα; HEK293T, APC 10 µM, 8-h): did not alter
- relative PPRE-LUC, Mean Diff. APC - Ctrl (PPARα, RXRα or LXRα; overexpressed gene: LXRa): 0.2098
- relative PPRE-LUC (PPARα, RXRα or LXRα; overexpressed gene: LXRa): 3.9435 and 4.3354 and 5.6775
- relative PPRE-LUC, mean (PPARα, RXRα or LXRα; overexpressed gene: LXRa): 4.652
- relative PPRE-LUC, Mean Diff. APC - Ctrl (PPARα, RXRα or LXRα; overexpressed gene: PPARa): -2.353
- relative PPRE-LUC (PPARα, RXRα or LXRα; overexpressed gene: PPARa): 39.2490 and 43.4175 and 53.1308
- relative PPRE-LUC, mean (PPARα, RXRα or LXRα; overexpressed gene: PPARa): 45.27
- relative PPRE-LUC, Mean Diff. APC - Ctrl (PPARα, RXRα or LXRα; overexpressed gene: RXRa): 3.509
- relative PPRE-LUC (PPARα, RXRα or LXRα; overexpressed gene: RXRa): 53.5690 and 51.6829 and 53.7514
- relative PPRE-LUC, mean (PPARα, RXRα or LXRα; overexpressed gene: RXRa): 53
- relative PPRE-LUC, Mean Diff. APC - Ctrl (PPARα, RXRα or LXRα; overexpressed gene: pcDNA): -0.0701
- relative PPRE-LUC (PPARα, RXRα or LXRα; overexpressed gene: pcDNA): 0.7140 and 0.9259 and 1.1498
- relative PPRE-LUC, mean (PPARα, RXRα or LXRα; overexpressed gene: pcDNA): 0.9299
- content of APC in the liver compared with other tissues ([1]; 2–8 h after one oral dose 20 mg/kg): highest
- APC content in tissue ([1]; Brain, 2H, oral, individual mice, * below the detection line, 2 h after oral dose): 0* ng/g (2×) and 16.430 ng/g
- APC content in tissue ([1]; Brain, 4H, oral, individual mice, * below the detection line): 0* ng/g
- APC content in tissue ([1]; Brain, 4H, oral, individual mice, * below the detection line, 4 h after oral dose): 1.550 ng/g and 4.810 ng/g
- APC content in tissue ([1]; Brain, 8H, oral, individual mice, * below the detection line): 0* ng/g
- APC content in tissue ([1]; BrownFat, 2H, oral, individual mice, 2 h after oral dose): 9.800 ng/g and 11.690 ng/g
- APC content in tissue ([1]; BrownFat, 4H, oral, individual mice): 9.800 ng/g
- APC content in tissue ([1]; BrownFat, 4H, oral, individual mice, 4 h after oral dose): 14.240 ng/g and 144.870 ng/g
- APC content in tissue ([1]; BrownFat, 8H, oral, individual mice): 1.740 ng/g and 5.480 ng/g and 3.880 ng/g
- APC content in tissue ([1]; Kidney, 2H, oral, individual mice, 2 h after oral dose): 23.340 ng/g and 9.890 ng/g and 11.250 ng/g
- APC content in tissue ([1]; Kidney, 4H, oral, individual mice): 9.550 ng/g
- APC content in tissue ([1]; Kidney, 4H, oral, individual mice, 4 h after oral dose): 19.740 ng/g and 19.810 ng/g
- APC content in tissue ([1]; Kidney, 8H, oral, individual mice): 2.260 ng/g and 4.200 ng/g and 7.700 ng/g
- APC content in tissue ([1]; Live (liver), 2H, oral, individual mice, 2 h after oral dose): 703.950 ng/g and 577.440 ng/g
- APC content in tissue ([1]; Live (liver), 4H, oral, individual mice): 815.560 ng/g
- APC content in tissue ([1]; Live (liver), 4H, oral, individual mice, 4 h after oral dose): 1205.720 ng/g
- APC content in tissue ([1]; Live (liver), 8H, oral, individual mice): 287.680 ng/g and 320.280 ng/g
- APC content in tissue ([1]; Muscle, 2H, oral, individual mice, 2 h after oral dose): 2.680 ng/g and 4.690 ng/g
- APC content in tissue ([1]; Muscle, 4H, oral, individual mice): 13.390 ng/g
- APC content in tissue ([1]; Muscle, 4H, oral, individual mice, 4 h after oral dose): 7.190 ng/g
- APC content in tissue ([1]; Muscle, 8H, oral, individual mice): 0.000 ng/g and 1.740 ng/g and 1.650 ng/g
- APC content in tissue ([1]; Pancreas, 2H, oral, individual mice, 2 h after oral dose): 18.050 ng/g and 11.070 ng/g and 26.740 ng/g
- APC content in tissue ([1]; Pancreas, 4H, oral, individual mice): 33.580 ng/g
- APC content in tissue ([1]; Pancreas, 4H, oral, individual mice, 4 h after oral dose): 20.040 ng/g and 8.730 ng/g
- APC content in tissue ([1]; Pancreas, 8H, oral, individual mice, * below the detection line): 10.890 ng/g and 0* ng/g (2×)
- APC content in tissue ([1]; Spleen, 2H, oral, individual mice, 2 h after oral dose): 10.360 ng/g and 16.550 ng/g
- APC content in tissue ([1]; Spleen, 4H, oral, individual mice): 12.280 ng/g
- APC content in tissue ([1]; Spleen, 4H, oral, individual mice, 4 h after oral dose): 22.450 ng/g
- APC content in tissue ([1]; Spleen, 8H, oral, individual mice): 0.000 ng/g and 12.270 ng/g and 10.910 ng/g
- APC content in tissue ([1]; WhiteFat, 2H, oral, individual mice, 2 h after oral dose): 10.520 ng/g and 12.290 ng/g
- APC content in tissue ([1]; WhiteFat, 4H, oral, individual mice): 42.520 ng/g
- APC content in tissue ([1]; WhiteFat, 4H, oral, individual mice, 4 h after oral dose): 32.220 ng/g
- APC content in tissue ([1]; WhiteFat, 8H, oral, individual mice): 3.140 ng/g and 8.490 ng/g and 14.550 ng/g
- APC-PO-heart-plasma ([1]; heart plasma, PO, 2H, individual mice): 28.92 ng/mL and 27.48 ng/mL
- APC-PO-heart-plasma ([1]; heart plasma, PO, 4H, individual mice): 64.03 ng/mL and 39.57 ng/mL
- APC-PO-heart-plasma ([1]; heart plasma, PO, 8H, individual mice): 7.56 ng/mL and 19.01 ng/mL and 14.9 ng/mL
- concentration at 8 h ([1]; brain, Brain, 8H, oral, individual mice, * below the detection line, read-out: APC content in tissue): 0 ng/g
- concentration at 4 h ([1]; brain, brain, 4 h after oral, Figure 5l, Y, read-out: average APC content 4 h after oral): 3.18 ng/g
- concentration at 4 h ([1]; brain, brain, 4 h after oral, Figure 5l, size of bubble, read-out: average APC content 4 h after oral): 3.18 ng/g
- concentration at 4 h ([1]; brown fat (BF), BF, 4 h after oral, Figure 5l, size of bubble, read-out: average APC content 4 h after oral): 56.3 ng/g
- concentration at 4 h ([1]; brown fat, BF, 4 h after oral, Figure 5l, Y, read-out: average APC content 4 h after oral): 56.3 ng/g
- concentration at 2 h ([1]; brown fat, BrownFat, 2H, oral, individual mice, read-out: APC content in tissue): 11.1 ng/g
- concentration at 2 h ([1]; heart plasma, heart plasma, PO, 2H, individual mice, read-out: APC-PO-heart-plasma): 32.1 ng/mL
- concentration at 4 h ([1]; heart plasma, heart plasma, PO, 4H, average, read-out: avarage APC, APC-PO-heart-plasma): 48.5 ng/mL
- concentration at 4 h ([1]; heart plasma, heart plasma, PO, 4H, individual mice, read-out: APC-PO-heart-plasma): 41.8 ng/mL
- concentration at 4 h ([1]; kidney, kidney, 4 h after oral, Figure 5l, Y, read-out: average APC content 4 h after oral): 16.4 ng/g
- concentration at 4 h ([1]; kidney, kidney, 4 h after oral, Figure 5l, size of bubble, read-out: average APC content 4 h after oral): 16.4 ng/g
- concentration at 4 h ([1]; liver, LIVER, 4 h after oral, Figure 5l, Y, read-out: average APC content 4 h after oral): 917 ng/g
- concentration at 4 h ([1]; liver, LIVER, 4 h after oral, Figure 5l, size of bubble, read-out: average APC content 4 h after oral): 917 ng/g
- concentration at 2 h ([1]; liver, Live (liver), 2H, oral, individual mice, read-out: APC content in tissue): 756 ng/g
- concentration at 4 h ([1]; liver, Live (liver), 4H, oral, individual mice, read-out: APC content in tissue): 729 ng/g
- concentration at 8 h ([1]; liver, Live (liver), 8H, oral, individual mice, read-out: APC content in tissue): 178 ng/g
- concentration at 2 h ([1]; liver, avarage APC, Live (liver), 2H, oral, average, heading: avarage APC): 679 ng/g
- concentration at 4 h ([1]; liver, avarage APC, Live (liver), 4H, oral, average, heading: avarage APC): 917 ng/g
- concentration at 2 h ([1]; muscle, Muscle, 2H, oral, individual mice, read-out: APC content in tissue): 3.77 ng/g
- concentration at 4 h ([1]; muscle, Muscle, 4H, oral, individual mice, read-out: APC content in tissue): 6.73 ng/g
- concentration at 4 h ([1]; muscle, Muscle, 4 h after oral, Figure 5l, Y, read-out: average APC content 4 h after oral): 9.1 ng/g
- concentration at 4 h ([1]; muscle, Muscle, 4 h after oral, Figure 5l, size of bubble, read-out: average APC content 4 h after oral): 9.1 ng/g
- concentration at 4 h ([1]; pancreas, panc, 4 h after oral, Figure 5l, Y, read-out: average APC content 4 h after oral): 20.8 ng/g
- concentration at 4 h ([1]; pancreas, panc, 4 h after oral, Figure 5l, size of bubble, read-out: average APC content 4 h after oral): 21.2 ng/g
- concentration at 4 h ([1]; portal vein plasma, po-portal vein plasma, 4 h after oral, Figure 5l, Y, read-out: average APC content 4 h after oral): 48.5 ng/g
- concentration at 4 h ([1]; portal vein plasma, po-portal vein plasma, 4 h after oral, Figure 5l, size of bubble, read-out: average APC content 4 h after oral): 48.5 ng/g
- concentration at 2 h ([1]; spleen, Spleen, 2H, oral, individual mice, read-out: APC content in tissue): 15.6 ng/g
- concentration at 4 h ([1]; spleen, Spleen, 4H, oral, individual mice, read-out: APC content in tissue): 13.8 ng/g
- concentration at 4 h ([1]; spleen, spleen, 4 h after oral, Figure 5l, Y, read-out: average APC content 4 h after oral): 16.2 ng/g
- concentration at 4 h ([1]; spleen, spleen, 4 h after oral, Figure 5l, size of bubble, read-out: average APC content 4 h after oral): 16.2 ng/g
- concentration at 4 h ([1]; white fat, WF, 4 h after oral, Figure 5l, Y, read-out: average APC content 4 h after oral): 32.7 ng/g
- concentration at 4 h ([1]; white fat, WF, 4 h after oral, Figure 5l, size of bubble, read-out: average APC content 4 h after oral): 32.7 ng/g
- concentration at 2 h ([1]; white fat, WhiteFat, 2H, oral, individual mice, read-out: APC content in tissue): 18.5 ng/g
- concentration at 4 h ([1]; white fat, WhiteFat, 4H, oral, individual mice, read-out: APC content in tissue): 23.2 ng/g

From PMC8752738, “A propolis-derived small molecule ameliorates metabolic syndrome in obese mice by targeting the CREB/CRTC2 transcriptional complex” (Nature Communications, 2022)
